pIC50: −log10 of the molar value.
Assays:
TIP60-KAT5 [1] = target: T1, TIP60-KAT5 (Homo sapiens, UniProt Q92993); assay: Revised Acetyltransferase Biochemical Assay, KAT5; conditions: 10 nM KAT5, 1 μM AcCoA, 100 nM histone H4, 90 min
T1 construct: encoding amino acid residues 2 to 461 (Uniprot Q92993-2) of human KAT5 isoform; made in house; host or cells: E. coli BL21 DE3

QKF-KAT6B = target: T2, QKF-KAT6B (Homo sapiens, UniProt Q8WYB5); assay: Revised Acetyltransferase Biochemical Assay, KAT6B; conditions: 8 nM KAT6B, 1 μM AcCoA, 100 nM histone H3.1, 90 min
T2 construct: purchased SignalChem K315-381BG
Description: KAT6B was obtained from SignalChem, catalog ID: K315-381BG

[2] = system: histone H3K23 acetylation (KATE mediated) in U2OS cells; assay: Histone H3 Lysine 23 Acetylation Biomarker Assay (U2OS); type: cell-based; conditions: 96 well, 24 hours incubation
Description: Compounds may be tested for their ability to inhibit acetylation of the histone H3K23 marker, which is KATE mediated, in the following assay:
The cell line U2OS was seeded at a density of 9,000 cells per well in 96 well optical quality tissue culture plates in RPMI medium and 10% foetal bovine serum, and allowed to adhere for 24 hours under standard culture conditions (37 degree Celsius, 5% CO2). At the end of this period the medium was aspirated. Compound dilutions prepared in DMSO were added to medium, with negative control wells reserved for treatment with DMSO only and 100% inhibition positive controls receiving a potent inhibitor compound (e.g. cas 2055397-28-7, benzoic acid, 3-fluoro-5-(2-pyridinyl)-, 2-[(2-fluorophenyl)sulfonyl]hydrazide) (Baell, J., Nguyen, H. N., Leaver, D. J., Cleary, B. L., Lagiakos, H. R., Sheikh, B. N., Thomas. T. J., Aryl sulfonohydrazides, WO2016198507A1, 2016) at 10 μM concentration and 200 μL transferred to the cells. After incubation for 24 hours, the cells were fixed with 3.7% formaldehyde in PBS for 20 minutes at room temperature, washed (5×5 minutes) with phosphate buffer saline containing 0.1% Tween 20 and blocked with Odyssey blocking buffer (LI-COR, Lincoln, Nebr.) containing 0.1% TritonX100. Anti-H3K23ac specific antibody (Abcam ab177275) in Odyssey blocking buffer containing 0.1% Tween 20 was added and incubated for 16 hours at 4 degree Celsius. After washing (as above), a secondary antibody labelled with Alexa647 dye (LifeTechnologies) and Hoechst 33342 (1 μg/mL, SigmaAldrich) were added for 1 hour incubation. Plates were washed as previously and read on a PerkinElmer Phenix high content imaging platform. Using a Columbus image analysis pipeline, individual nuclei were located by Hoechst 33342 stain and the acetylation level was calculated from the Alexa647-related intensity in the same area. The resulting mean intensity per cell was directly converted to percent inhibition relative to controls on the same plate and the data fitted against a four-parameter logistic model to determine the 50% inhibitory concentration (IC50).

MOZ-KAT6A [3] = target: T3, MOZ-KAT6A (Homo sapiens, UniProt Q92794, A567V); assay: Acetyltransferase biochemical assay (AlphaScreen), KAT6A; conditions: Table 2 (MOZ-KAT6A); 10 μM Acetyl coenzyme A, histone H3.1, 5 nM enzyme
T3 construct: encoding amino acid residues 507 to 778 (Uniprot Q92794-1) of human KAT6A; made in house; host or cells: E. coli BL21 DE3

MOF-KAT8 [4] = target: T4, MOF-KAT8 (Homo sapiens, UniProt Q9H7Z6); assay: Revised Acetyltransferase Biochemical Assay, KAT8
T4 sequence (Q9H7Z6 177-447): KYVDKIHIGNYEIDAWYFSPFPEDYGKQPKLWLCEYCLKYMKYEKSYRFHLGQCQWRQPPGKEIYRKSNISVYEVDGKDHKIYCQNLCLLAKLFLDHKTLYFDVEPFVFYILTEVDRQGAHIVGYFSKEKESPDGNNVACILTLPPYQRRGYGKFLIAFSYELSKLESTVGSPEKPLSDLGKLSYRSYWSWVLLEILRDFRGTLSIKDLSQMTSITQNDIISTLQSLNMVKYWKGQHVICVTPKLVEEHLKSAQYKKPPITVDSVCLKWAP

MOZ-KAT6A [5] = target: T3, MOZ-KAT6A; assay: Revised Acetyltransferase Biochemical Assay, KAT6A; conditions: Table 8 (MOZ-KAT6A), 1 μM Acetyl coenzyme A
TIP60-KAT5 [6] = target: T1, TIP60-KAT5; assay: Acetyltransferase biochemical assay (AlphaScreen), KAT5; conditions: Table 1 (TIP60-KAT5); 0.4 μM Acetyl coenzyme A, histone H4, 10 nM enzyme
HBO-KAT7 [7] = target: T5, HBO-KAT7 (Homo sapiens, UniProt O95251); assay: Revised Acetyltransferase Biochemical Assay, KAT7; conditions: Table 9 (HBO-KAT7), 1 μM Acetyl coenzyme A
T5 construct: encoding amino acid residues 325 to 611 (Uniprot 095251-1) of human KAT7; made in house; host or cells: E. coli BL21 DE3 RIL

HBO-KAT7 [8] = target: T5, HBO-KAT7; assay: Acetyltransferase biochemical assay (AlphaScreen), KAT7; conditions: Table 3 (HBO-KAT7); 0.4 μM Acetyl coenzyme A, histone H3.1, 40 nM enzyme
MOF-KAT8 [9] = target: T4, MOF-KAT8; assay: Acetyltransferase biochemical assay (AlphaScreen), KAT8; conditions: Table 4 (MOF-KAT8); 0.4 μM Acetyl coenzyme A, histone H4, 20 nM enzyme
[10] = system: histone H3 Lysine 14 acetylation (HBO1 mediated) in U2OS cells; assay: Histone H3 Lysine 14 Acetylation Biomarker Assay (384-well, U2OS); type: cell-based; conditions: Homo sapiens, serum free medium, 24 hours incubation
How it was run: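 U2OS cells in serum-free medium treated with compound 24 h; DMSO and 10 μM reference inhibitor as 0% and 100% controls. Fixed cells immunostained for H3K14ac (AlexaFluor 488) with Hoechst nuclear mask, imaged by high-content analysis; per-cell intensity converted to % inhibition, IC50 by four-parameter logistic fit.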

[11] = system: histone H2A.Z Lysine 7 acetylation (TIP60 mediated) in U2OS cells; assay: H2A.Z Lysine 7 Acetylation Biomarker Assay (384-well, U2OS); type: cell-based; conditions: Homo sapiens, serum free medium, 24 hours incubation
How it was run: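 U2OS cells (3,000/well) were treated with compound for 24 h after a serum-free wash, then fixed. They were stained with anti-H2A.ZK7ac, an AlexaFluor 488 secondary and Hoechst. High-content imaging gave mean nuclear intensity per cell, converted to percent inhibition against on-plate controls, and IC50 came from a four-parameter logistic fit.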

T2 sequence (Q8WYB5 whole entry): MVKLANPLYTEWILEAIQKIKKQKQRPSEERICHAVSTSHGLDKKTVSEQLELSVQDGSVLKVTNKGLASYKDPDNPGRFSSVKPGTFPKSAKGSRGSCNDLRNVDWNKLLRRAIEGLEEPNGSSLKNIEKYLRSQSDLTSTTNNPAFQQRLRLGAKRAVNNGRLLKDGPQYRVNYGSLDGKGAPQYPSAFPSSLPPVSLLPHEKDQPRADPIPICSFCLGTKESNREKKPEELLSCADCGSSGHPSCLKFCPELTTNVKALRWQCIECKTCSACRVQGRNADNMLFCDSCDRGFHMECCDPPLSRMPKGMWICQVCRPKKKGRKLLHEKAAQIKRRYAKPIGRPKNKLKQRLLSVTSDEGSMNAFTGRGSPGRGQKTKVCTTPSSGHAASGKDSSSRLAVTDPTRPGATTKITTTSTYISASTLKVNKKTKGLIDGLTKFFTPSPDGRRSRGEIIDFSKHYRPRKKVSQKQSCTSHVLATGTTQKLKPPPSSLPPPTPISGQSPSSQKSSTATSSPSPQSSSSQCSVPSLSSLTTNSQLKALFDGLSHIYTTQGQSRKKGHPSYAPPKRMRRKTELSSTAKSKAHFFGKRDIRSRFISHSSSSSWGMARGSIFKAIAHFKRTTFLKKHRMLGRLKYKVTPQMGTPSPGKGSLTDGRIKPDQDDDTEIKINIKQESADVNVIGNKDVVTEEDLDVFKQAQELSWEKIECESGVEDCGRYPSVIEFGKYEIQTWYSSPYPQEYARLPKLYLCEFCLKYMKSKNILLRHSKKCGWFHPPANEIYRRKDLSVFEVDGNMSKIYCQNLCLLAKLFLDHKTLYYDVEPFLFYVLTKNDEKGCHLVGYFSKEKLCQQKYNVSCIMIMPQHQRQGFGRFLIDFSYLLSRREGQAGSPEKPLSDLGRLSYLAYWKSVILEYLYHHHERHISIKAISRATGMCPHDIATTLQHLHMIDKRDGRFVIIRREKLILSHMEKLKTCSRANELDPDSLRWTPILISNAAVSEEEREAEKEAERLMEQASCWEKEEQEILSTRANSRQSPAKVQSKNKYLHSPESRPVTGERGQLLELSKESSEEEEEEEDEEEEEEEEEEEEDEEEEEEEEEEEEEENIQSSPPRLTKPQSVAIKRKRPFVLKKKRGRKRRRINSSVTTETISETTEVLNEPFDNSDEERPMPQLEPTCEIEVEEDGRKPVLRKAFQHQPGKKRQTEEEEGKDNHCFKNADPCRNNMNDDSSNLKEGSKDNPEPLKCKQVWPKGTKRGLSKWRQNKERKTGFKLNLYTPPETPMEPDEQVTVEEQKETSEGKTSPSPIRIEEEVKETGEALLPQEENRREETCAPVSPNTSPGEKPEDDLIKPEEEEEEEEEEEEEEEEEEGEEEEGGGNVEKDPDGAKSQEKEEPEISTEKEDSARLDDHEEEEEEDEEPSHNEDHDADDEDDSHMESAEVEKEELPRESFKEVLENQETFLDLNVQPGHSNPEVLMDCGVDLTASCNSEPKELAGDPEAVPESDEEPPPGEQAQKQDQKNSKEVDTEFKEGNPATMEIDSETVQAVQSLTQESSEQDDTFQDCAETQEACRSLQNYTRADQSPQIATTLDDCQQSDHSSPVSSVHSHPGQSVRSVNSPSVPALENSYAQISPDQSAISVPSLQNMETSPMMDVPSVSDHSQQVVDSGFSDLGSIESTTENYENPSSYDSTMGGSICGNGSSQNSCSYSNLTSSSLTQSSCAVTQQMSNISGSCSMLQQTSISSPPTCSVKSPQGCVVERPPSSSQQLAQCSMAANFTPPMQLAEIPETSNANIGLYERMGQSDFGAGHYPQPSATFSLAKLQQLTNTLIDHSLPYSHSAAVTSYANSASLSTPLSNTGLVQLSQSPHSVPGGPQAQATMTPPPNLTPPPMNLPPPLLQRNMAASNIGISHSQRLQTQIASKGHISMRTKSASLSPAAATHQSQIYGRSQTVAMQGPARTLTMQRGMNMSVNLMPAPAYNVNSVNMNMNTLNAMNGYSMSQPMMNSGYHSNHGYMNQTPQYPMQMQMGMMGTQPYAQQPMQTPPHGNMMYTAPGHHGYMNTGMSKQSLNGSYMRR
T3 sequence (Q92794 507-778 A567V limits assumed): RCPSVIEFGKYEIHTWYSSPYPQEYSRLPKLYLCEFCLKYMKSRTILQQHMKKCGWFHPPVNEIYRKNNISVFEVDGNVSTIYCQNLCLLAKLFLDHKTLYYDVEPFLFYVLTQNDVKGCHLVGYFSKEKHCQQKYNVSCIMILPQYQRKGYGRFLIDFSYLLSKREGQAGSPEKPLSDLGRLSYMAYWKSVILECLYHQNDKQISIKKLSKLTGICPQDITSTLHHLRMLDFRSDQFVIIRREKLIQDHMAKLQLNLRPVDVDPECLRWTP
T5 sequence (O95251 with tags, fused parts or gaps): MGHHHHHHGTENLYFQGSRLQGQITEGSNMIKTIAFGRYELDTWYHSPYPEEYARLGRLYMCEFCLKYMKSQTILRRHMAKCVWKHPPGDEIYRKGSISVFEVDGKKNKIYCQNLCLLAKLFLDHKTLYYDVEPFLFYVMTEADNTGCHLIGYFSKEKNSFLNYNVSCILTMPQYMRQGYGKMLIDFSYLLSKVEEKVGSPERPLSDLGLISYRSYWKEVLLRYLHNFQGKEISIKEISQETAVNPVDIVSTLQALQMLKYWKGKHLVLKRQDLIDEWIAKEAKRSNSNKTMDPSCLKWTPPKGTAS
T1 sequence (Q92993 2-461 isoform Q92993-2): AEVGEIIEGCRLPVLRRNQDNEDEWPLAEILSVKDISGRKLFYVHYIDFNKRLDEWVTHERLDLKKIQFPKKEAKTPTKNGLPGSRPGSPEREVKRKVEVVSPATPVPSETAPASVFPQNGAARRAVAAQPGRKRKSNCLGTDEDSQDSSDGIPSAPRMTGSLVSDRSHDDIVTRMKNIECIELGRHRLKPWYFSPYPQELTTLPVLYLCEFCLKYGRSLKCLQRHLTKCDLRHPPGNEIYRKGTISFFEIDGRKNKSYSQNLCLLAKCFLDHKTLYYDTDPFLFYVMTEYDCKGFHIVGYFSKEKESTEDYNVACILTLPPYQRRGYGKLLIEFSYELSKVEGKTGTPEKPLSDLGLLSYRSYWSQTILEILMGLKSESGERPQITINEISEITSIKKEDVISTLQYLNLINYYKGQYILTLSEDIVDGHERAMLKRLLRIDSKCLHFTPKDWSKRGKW

Row | SMILES | pIC50 (TIP60-KAT5 [1]) | pIC50 (QKF-KAT6B) | pIC50 [2] | pIC50 (MOZ-KAT6A [3]) | pIC50 (MOF-KAT8 [4]; read-out: IC50 (MOF-KAT8), Revised acetyltransferase biochemical assay, 20 nM KAT8, 1 μM AcCoA, 100 nM histone H4, 90 min) | pIC50 (MOZ-KAT6A [5]) | pIC50 (TIP60-KAT5 [6]) | pIC50 (HBO-KAT7 [7]) | pIC50 (HBO-KAT7 [8]) | pIC50 ([2]; Homo sapiens) | pIC50 (MOF-KAT8 [4]) | pIC50 (MOF-KAT8 [9]) | pIC50 [10] | pIC50 [11]
1 | O=C(NCC(c1ccccc1)c1ncco1)C1=Nc2ccc(F)cc2S(=O)(=O)N1 (single isomer, unassigned) [Example 144] | 5.97 | 6.34 | 6.98 | 6.92 | 4.33 | 7.68 | 5.78 | 5.86 | – | – | – | – | – | –
2 | Cn1cc(-c2ccc3c(c2)S(=O)(=O)NC(C(=O)NCC(c2ccccc2)c2ncco2)=N3)cn1 (stereo not drawn) [Example 25, 7-(1-Methyl-1H-pyrazol-4-yl)-N-(2-(oxazol-2-yl)-2-phenylethyl)-2H-benzo[e][1,2,4]thiadiazine-3-carboxamide 1,1-dioxide] | 5.23 | 6.21 | – | 7.29 | – | 7.19 | 5.16 | 4.92 | 5.71 | 5.42 | < 3.90 | 4.11 | – | –
3 | O=C(NCC(c1ccccc1)c1ncco1)C1=Nc2ccc(-c3cn[nH]c3)cc2S(=O)(=O)N1 (stereo not drawn) [Example 26, N-(2-(Oxazol-2-yl)-2-phenylethyl)-7-(1H-pyrazol-4-yl)-2H-benzo[e][1,2, 4]thiadiazine-3-carboxamide 1,1-dioxide] | 5.23 | 6.92 | – | 7.54 | – | 7.39 | 5.78 | 5.29 | 5.83 | 5.97 | 4.40 | 4.63 | – | –
4 | CNC(=O)c1ccc2c(c1)S(=O)(=O)NC(C(=O)NCC(c1ccccc1)c1ncco1)=N2 (stereo not drawn) [Example 32, N^7-Methyl-N^3-(2-(oxazol-2-yl)-2-phenylethyl)-2H-benzo[e][1,2,4]thiadiazine-3,7-dicarboxamide 1,1-dioxide] | 5.27 | 6.81 | – | 7.30 | – | 7.52 | 5.30 | 6.45 | 5.33 | < 5.00 | < 3.90 | 4.13 | – | –
5 | O=C(NCC(c1cccc(Cl)c1)c1ncco1)C1=Nc2ccc(I)cc2S(=O)(=O)N1 (stereo not drawn) [Example 163] | 6.66 | 6.93 | – | – | – | 7.77 | – | 6.94 | – | 6.34 | 4.83 | 5.01 | 6.05 | 5.82
6 | O=C(NCC(c1ccccc1)c1nccs1)C1=Nc2ccc(Cl)cc2S(=O)(=O)N1 (stereo not drawn) [Example 166] | 6.15 | 7.14 | – | – | – | 8.15 | – | 6.74 | – | 7.03 | 4.43 | – | 6.21 | 5.27
7 | COc1cc(C)cc(C(CNC(=O)C2=Nc3ccc(I)cc3S(=O)(=O)N2)c2ncco2)c1 (stereo not drawn) [Example 196, 7-iodo-N-(2-(3-methoxy-5-methylphenyl)-2-(oxazol-2-yl)ethyl)-2H-benzo[e][1,2,4]thiadiazine-3-carboxamide 1,1-dioxide] | 6.09 | 6.00 | – | – | – | 7.10 | – | 7.60 | – | 6.00 | 4.10 | – | 7.02 | 6.05
8 | O=C(NCCC1CCCCC1)C1=Nc2ccc(-c3c[nH]nn3)cc2S(=O)(=O)N1 [Example 201] | 4.36 | 5.28 | – | – | – | 6.57 | – | 4.25 | – | < 5.00 | – | – | < 4.40 | < 4.40
9 | O=C(NCCC1CCCCC1)C1=Nc2ccc(I)cc2S(=O)(=O)N1 [Example 204] | < 3.90 | < 3.90 | – | – | – | 6.91 | – | 4.23 | – | < 5.00 | < 3.90 | < 3.90 | – | < 4.40
10 | COCCC(CNC(=O)C1=Nc2ccc(I)cc2S(=O)(=O)N1)c1ccccc1 (stereo not drawn) [Example 220, 7-Iodo-N-(4-methoxy-2-phenylbutyl)-2H-benzo[e][1,2,4]thiadiazine-3-carboxamide 1,1-dioxide] | 5.84 | 6.87 | – | – | – | 7.70 | – | 6.67 | – | 6.27 | 4.57 | – | 6.04 | 5.11
11 | Cc1cc(O)cc(C(CNC(=O)C2=Nc3ccc(Cl)cc3S(=O)(=O)N2)c2ncco2)c1 (stereo not drawn) [Example 221, 7-Chloro-N-(2-(3-hydroxy-5-methylphenyl)-2-(oxazol-2-yl)ethyl)-2H-benzo[e][1,2,4]thiadiazine-3-carboxamide 1,1-dioxide] | 5.80 | 5.36 | – | – | – | 6.24 | – | 7.14 | – | < 5.00 | – | – | 5.78 | 5.16
12 | O=C(NCC(F)(F)c1ccccc1OC(F)F)C1=Nc2ccc(I)cc2S(=O)(=O)N1 [Example 231, N-(2-(2-(difluoromethoxy)phenyl)-2,2-difluoroethyl)-7-iodo-2H-benzo[e][1,2,4]thiadiazine-3-carboxamide 1,1-dioxide] | 6.51 | 5.49 | – | – | – | 7.00 | – | 6.84 | – | < 5.00 | 5.18 | – | 5.41 | 5.34
13 | Cc1cccc(C(CNC(=O)C2=Nc3ccc(I)cc3S(=O)(=O)N2)c2ncco2)c1 (stereo not drawn) [Example 233, 7-iodo-N-(2-(oxazol-2-yl)-2-(m-tolyl)ethyl)-2H-benzo[e][1,2,4]thiadiazine-3-carboxamide 1,1-dioxide] | 6.81 | 6.60 | – | – | – | 7.89 | – | 7.85 | 7.42 | – | 5.03 | 5.21 | 5.49 | 5.70
14 | O=C(NCC(F)(F)c1ccccc1)C1=Nc2ccc(I)cc2S(=O)(=O)N1 [Example 238, N-(2,2-difluoro-2-phenylethyl)-7-iodo-2H-benzo[e][1,2,4]thiadiazine-3-carboxamide 1,1-dioxide] | 5.74 | 5.23 | – | – | – | 6.73 | – | 6.06 | – | – | 4.59 | 4.38 | 4.86 | –

Reference: patent publication US20210380548A1, “Fused [1,2,4]Thiadiazine Derivatives Which Act as KAT Inhibitors of the MYST Family” (CTxT Pty Limited, priority 2017, published 2021)
